Drawing on patent US7595330B2, “Benzimidazole thiophene compounds” (SmithKline Beecham Corporation, priority 2005, dated 2009), this text covers IC50 for 1 compound.

Holding throughout (type): cell-based
One assay relates to BXPC3. Briefly: Cell-Titer-Glo inhibition of cell proliferation, BXPC3. As to conditions: Homo sapiens, BXPC-3, CellTiter-Glo, 72 h. The procedure: (§1) V. Cell-Titer-Glo—Inhibition of Cell Proliferation by PLK1 Inhibitors
(§2) Exponentially growing cell lines of different tumor origins, cultured in appropriate media containing 10% fetal bovine serum at 37° C. in a 5% CO2 incubator were plated at low density (less than 2000 cells/well) in 96-well plates. Twenty four hours post-plating, cells were treated with different concentrations of test compounds ranging from 10 uM to 0.04 nM. Several wells were left untreated as a control. Seventy two hours post-treatment, cell numbers were determined using 50-100 ul per well of CellTiter-Glo (Promega #G7573). Plates were incubated at room temperature for 15 minutes and the chemiluminescent signal was read on the Victor V or Envison 2100 reader.
(§3) The Cell-Titer Glo data are shown in Table 2 below and represent a compilation of several different experiments, each performed using the general parameters outlined above, although minor variations may have been employed in some instances.
On the technique in general: ATP-based viability assays read luminescence as a measure of living cells.

In the next assay the test system is Hela. The assay can be described thus: Cell-Titer-Glo inhibition of cell proliferation, Hela. As to conditions: Homo sapiens, CellTiter-Glo, 72 h. How it is done:
as §1, §2, §3

A further assay relates to RKO. Briefly: Methylene blue growth inhibition assay, RKO. Conditions: Homo sapiens, methylene blue, 72 h, read-out: RKO IC50. The procedure, abridged: (§4)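 Tumour lines and HFF, plated at cell-line-specific densities in DMEM with 10% FBS, were exposed next day to compound (final DMSO 0.3%) for 72 h at 37 °C. Biomass was stained with methylene blue, solubilized in 1% N-lauroyl sarcosine and read at OD 620 nm; percent growth inhibition was calculated against vehicle controls.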

In the next assay the test system is P388. The assay can be described thus: Cell-Titer-Glo inhibition of cell proliferation, P388. As to conditions: Mus musculus, CellTiter-Glo, 72 h. How it is done:
as §1, §2, §3

Another assay concerns SKOV-3. Briefly: Cell-Titer-Glo inhibition of cell proliferation, SKOV-3. As to conditions: Homo sapiens, SK-OV-3, CellTiter-Glo, 72 h. How it is done:
as §1, §2, §3

The next assay deals with PANC-1. Briefly: Cell-Titer-Glo inhibition of cell proliferation, PANC-1. As to conditions: Homo sapiens, CellTiter-Glo, 72 h. How it is done: as §1, §2, §3
The subject of another assay is ASPC3. Briefly: Cell-Titer-Glo inhibition of cell proliferation, ASPC3. Conditions: CellTiter-Glo, 72 h. The procedure:
as §1, §2, §3

For the next assay, the system named is MiaPaca. Briefly: Cell-Titer-Glo inhibition of cell proliferation, MiaPaca. As to conditions: Homo sapiens, MIA PaCa-2, CellTiter-Glo, 72 h. The procedure: as §1, §2, §3
The subject of another assay is A549-L. The assay can be described thus: Cell-Titer-Glo inhibition of cell proliferation, A549-L. Conditions: CellTiter-Glo, 72 h. How it is done: as §1, §2, §3
In a further assay the test system is H1299. Briefly: Cell-Titer-Glo inhibition of cell proliferation, H1299. As to conditions: Homo sapiens, NCI-H1299, CellTiter-Glo, 72 h. How it is done: as §1, §2, §3
The subject of the next assay is COLO205. Briefly: Cell-Titer-Glo inhibition of cell proliferation, COLO205. Conditions: Homo sapiens, COLO 205, CellTiter-Glo, 72 h. The procedure: as §1, §2, §3
For a further assay, the system named is MCF7. Briefly: Methylene blue growth inhibition assay, MCF7. Conditions: Homo sapiens; methylene blue, 72 h, MCF7; read-out: MCF7 IC50. An outline of the steps: as §4
A further assay deals with A549. The assay can be described thus: Methylene blue growth inhibition assay, A549. Conditions: Homo sapiens; methylene blue, 72 h, A549; read-out: A549 IC50. An outline of the steps: as §4

pIC50: −log10 of the molar value. A value given as a limit tells only on which side of the number the result lay.

Consider `C[C@@H](Oc1cc(-n2cnc3ccc(CN4CCN(C)CC4)cc32)sc1C(N)=O)c1ccccc1C(F)(F)F` [Example 3, 5-{6-[(4-Methylpipiperazin-1-yl)methyl]-1H-benzimidazol-1-yl}-3-{(1R)-1-[2-(trifluoromethyl)phenyl]ethoxy}thiophene-2-carboxamide], for which the pIC50 (commonly the IC50 on a negative log10 scale, so that one unit is a factor of ten) with BXPC3 is over 6.30; with Hela it was over 6.30; in the assay on RKO, over 7.00; with P388, over 6.30; with SKOV-3 it was over 6.30; in the assay on PANC-1, over 6.30. Moreover, the pIC50 in the assay on ASPC3 is over 6.30; with MiaPaca it was over 6.30; in the assay with A549-L, over 6.30; in the assay on H1299, over 6.30; in the assay with COLO205, over 6.30; in the assay with MCF7, over 7.00. The pIC50 in the assay on A549 was over 7.00.
